Experimental data as given in PMC9011347, “Small-Molecule Inhibitors Targeting Lipolysis in Human Adipocytes” (Journal of the American Chemical Society, 2022).
Where two headings read alike, the source gives them in different places.

Test system: human Simpson–Golabi–Behmel syndrome (SGBS) adipocytes
Assay: Lipolysis in SGBS adipocytes (FA, glycerol release, DAG content)
Type: cell-based
Conditions: for IC50: Homo sapiens, 1 h preincubation, isoproterenol 1 μM
Protocol: Figure 3 NG-497 inhibits lipolysis in human SGBS and primary human adipocytes. SGBS adipocytes were preincubated with NG-497 for 1 h at the indicated concentrations. Subsequently, lipolysis was stimulated with isoproterenol (1 μM) and (a) FA and (b) glycerol release was determined after 1 h using commercial kits. (c) Dose-dependent inhibition of isoproterenol-stimulated FA release from SGBS adipocytes by the HSL inhibitor 76-068 (HSLi). […] (e) DAG accumulation in SGBS adipocytes was analyzed by thin-layer chromatography (TLC) following 1 h incubation with HSLi (25 μM), NG-497 (40 μM), and a combination of both inhibitors. (f) Primary human adipocytes were prelabeled with 1 μCi [9,10-^3H] oleic acid per well for 12 h. Subsequently, basal and Forskolin (5 μM)-stimulated release of radioactivity was determined via liquid scintillation over a period of 2 h in the presence or absence of NG-497 (40 μM). FA release was calculated based on FA concentrations in conditioned media after 2 h as determined using a commercial kit. (g) Primary human adipocytes were preincubated in the presence or absence of NG-497 (40 μM) for 1 h. Subsequently, the medium was changed and FA release was monitored over a period of 3 h under the indicated conditions. Data are presented as mean ± SD. Statistical significance was determined via ANOVA followed by Bonferroni post hoc test (^#p < 0.05; ^##p < 0.01; ^###p < 0.001). TEXT PRINTED IN THE PICTURE: (a) NG-497: IC50 (μM) 1.5 ± 0.5 | (b) NG-497: IC50 (μM) 1.5 ± 0.5 | (c) HSLi: IC50 (nM) 100 ± 15 | (d) NG-497: IC50 (μM) 0.5 ± 0.1 […]
Lipidomic analysis. HepG2 cells were treated for 3 hours with 40 µM NG-497 or DMSO as control. Subsequently, cells were washed three times with PBS, harvested, and extracted with 700 µl MTBE:MeOH (10:3, v:v) for 1 hour at 4 °C on a Thermomix shaker at 1,400 rpm. 200 µl H2O were added, shaken for another 20 min, centrifuged for 10 min at 20,000 g for phase separation.
500 µl of the organic phase was transferred and evaporated under a stream of nitrogen. […] The aqueous phase was dried, the protein pellet incubated overnight with 400 µl NaOH/SDS (0.3 M/0.1%) and total protein content analyzed by the BCA protein assay (Thermo Fisher Scientific) according to the manufacturer’s instructions.
Lipid samples were separated on an Agilent 1290 Infinite II UHPLC with gradient elution over a Zorbax Extend-C18 reversed phase column (2.1 x 50 mm, 1.8µm) at 50°C. […] Samples were analyzed on an Agilent 6560 Ion Mobility Q-ToF mass spectrometer in Qtof-only mode over a scan range of 100 to 1700 m/z in negative mode and 150 to 1700 m/z in positive mode with automatic MS/MS generation. All samples were analyzed in triplicates using iterative acquisition mode to increase the number of MS/MS spectra for better annotation. […]

## CCOc1ccc(-c2cc(OC)cc(C(=O)OC(C)C)n2)cc1 [NG-497]
1 h, read-out: IC50 of isoproterenol-stimulated FA release
  IC50: 1500 nM
1 h, read-out: IC50 of isoproterenol-stimulated glycerol release
  IC50: 1500 nM
NG-497 40 μM combined with HSLi 25 μM, 1 h, TLC
  DAG accumulation under combined inhibition of HSL and ATGL: prevented DAG accumulation
Concentrations ≥10 μM
  effect on lipolysis: almost completely abolished lipolysis
